# Experimental data reported in PubChem BioAssay AID328 (DTP/NCI, 2004).
# Values joined by “and” are separate entries in the source; they are usually repeats but may differ in a detail not shown here. Equal entries are not always repeated. Toxic doses and inconclusive results are not listed. Residues, ends and D or L forms follow the SMILES beside them. *: point of attachment. Bn = c1ccc(C*)cc1; For = O=C*
# System: BDF1 mice, P388 leukemia ip, median survival T/C
# Test: NCI In Vivo Anticancer Drug Screen. Data for tumor model P388 Leukemia (intraperitoneal) in B6D2F1 (BDF1) mice
# Details: endpoint: median survival time, higher = longer survival
# In short: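 Transplantable tumour in mice; compound vs vehicle dosing; survival scored; ratio of treated to control reported.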
# [1] = dose: 100.0 mg/kg/injection, schedule: Q01DX009 (ip), vehicle: saline
# [2] = dose: 100.0 mg/kg/injection, schedule: Q04DX003 (ip), vehicle: saline
# [3] = dose: 200.0 mg/kg/injection, schedule: Q04DX003 (ip), vehicle: saline
# [4] = dose: 400.0 mg/kg/injection, schedule: Q01DX009 (ip), vehicle: saline
# [5] = dose: 400.0 mg/kg/injection, schedule: Q04DX003 (ip), vehicle: saline
# [6] = dose: 50.0 mg/kg/injection, schedule: Q04DX003 (ip), vehicle: saline with Tween-80
# [7] = dose: 100.0 mg/kg/injection, schedule: Q04DX003 (ip), vehicle: saline with Tween-80
# [8] = dose: 200.0 mg/kg/injection, schedule: Q04DX003 (ip), vehicle: saline with Tween-80
# [9] = dose: 50.0 mg/kg/injection, schedule: Q01DX009 (ip), vehicle: saline with Tween-80
# [10] = dose: 100.0 mg/kg/injection, schedule: Q01DX009 (ip), vehicle: saline with Tween-80
# [11] = dose: 200.0 mg/kg/injection, schedule: Q01DX009 (ip), vehicle: saline with Tween-80
# [12] = dose: 25.0 mg/kg/injection, schedule: Q01DX009 (ip), vehicle: saline with Tween-80
# [13] = dose: 12.5 mg/kg/injection, schedule: Q01DX009 (ip), vehicle: saline with Tween-80
compound,measurement,setting,value
CN(C)C(=O)CCCCC(=O)N(C)C,T/C,"dose: 1.0 mg/kg/injection, schedule: Q01DX001 (ip), vehicle: saline",96 % of control
same,T/C,"dose: 2.0 mg/kg/injection, schedule: Q01DX001 (ip), vehicle: saline",110 % of control
same,T/C,"dose: 4.0 mg/kg/injection, schedule: Q01DX001 (ip), vehicle: saline",106 % of control
same,T/C,"dose: 8.0 mg/kg/injection, schedule: Q01DX001 (ip), vehicle: saline",102 % of control
same,T/C,"dose: 16.0 mg/kg/injection, schedule: Q01DX001 (ip), vehicle: saline",96 % of control
same,T/C,"dose: 32.0 mg/kg/injection, schedule: Q01DX001 (ip), vehicle: saline",100 % of control
same,T/C,"dose: 64.0 mg/kg/injection, schedule: Q01DX001 (ip), vehicle: saline",95 % of control
same,T/C,"dose: 128.0 mg/kg/injection, schedule: Q01DX001 (ip), vehicle: saline",102 % of control
O=C(Nc1ccc([N+](=O)[O-])cc1)Nc1ccc([N+](=O)[O-])cc1 (tested in a mixture with another compound),T/C,[1],109 % of control
same,T/C,[2],112 % of control and 104 % of control
same,T/C,"dose: 200.0 mg/kg/injection, schedule: Q01DX009 (ip), vehicle: saline",122 % of control
same,T/C,[3],100 % of control and 91 % of control
same,T/C,[4],118 % of control
same,T/C,[5],112 % of control and 100 % of control
COc1cc2c3c(c1)-c1nc4ccccc4cc1CN3CCC2,T/C,"dose: 12.5 mg/kg/injection, schedule: Q04DX003 (ip), vehicle: other",100 % of control
same,T/C,"dose: 25.0 mg/kg/injection, schedule: Q04DX003 (ip), vehicle: other",113 % of control
same,T/C,"dose: 50.0 mg/kg/injection, schedule: Q04DX003 (ip), vehicle: other",109 % of control
C=CCC1CCSC1=O (configuration not stated),T/C,"dose: 25.0 mg/kg/injection, schedule: Q04DX003 (ip), vehicle: saline with Tween-80",100 % of control and 115 % of control
same,T/C,[6],103 % of control and 106 % of control
same,T/C,[7],101 % of control and 103 % of control and 119 % of control
same,T/C,[8],108 % of control
CC1=CC=CC2=NC(=O)CCN12,T/C,[9],94 % of control
same,T/C,[10],94 % of control
same,T/C,[11],100 % of control
C[CH2][Ge]1([CH2]C)[CH2]CC2(CCN(CCCN(C)C)C2)C[CH2]1,T/C,"dose: 0.5 mg/kg/injection, schedule: Q01DX009 (ip), vehicle: saline",105 % of control
same,T/C,"dose: 1.0 mg/kg/injection, schedule: Q01DX009 (ip), vehicle: saline",102 % of control
same,T/C,"dose: 2.0 mg/kg/injection, schedule: Q01DX009 (ip), vehicle: saline",103 % of control
same,T/C,"dose: 4.0 mg/kg/injection, schedule: Q01DX009 (ip), vehicle: saline",104 % of control and 118 % of control
same,T/C,"dose: 8.0 mg/kg/injection, schedule: Q01DX009 (ip), vehicle: saline",102 % of control
same,T/C,"dose: 16.0 mg/kg/injection, schedule: Q01DX009 (ip), vehicle: saline",103 % of control
same,T/C,"dose: 32.0 mg/kg/injection, schedule: Q01DX009 (ip), vehicle: saline",100 % of control
same,T/C,"dose: 50.0 mg/kg/injection, schedule: Q01DX009 (ip), vehicle: saline",102 % of control
same,T/C,"dose: 60.0 mg/kg/injection, schedule: Q01DX009 (ip), vehicle: saline with Tween-80",92 % of control
same,T/C,"dose: 64.0 mg/kg/injection, schedule: Q01DX009 (ip), vehicle: saline",91 % of control
CCCSC(CC=O)CCC (configuration not stated),T/C,"dose: 100.0 mg/kg/injection, schedule: Q01DX001 (ip), vehicle: suspension in saline",106 % of control
same,T/C,"dose: 200.0 mg/kg/injection, schedule: Q01DX001 (ip), vehicle: suspension in saline",92 % of control
same,T/C,"dose: 400.0 mg/kg/injection, schedule: Q01DX001 (ip), vehicle: suspension in saline",88 % of control
NOc1ccc([N+](=O)[O-])cc1[N+](=O)[O-],T/C,"dose: 6.25 mg/kg/injection, schedule: Q01DX009 (ip), vehicle: Klucel (hydroxypropylcellulose) (HPC)",115 % of control
same,T/C,"dose: 12.5 mg/kg/injection, schedule: Q01DX009 (ip), vehicle: Klucel (hydroxypropylcellulose) (HPC)",95 % of control
same,T/C,"dose: 16.5 mg/kg/injection, schedule: Q01DX009 (ip), vehicle: Klucel (hydroxypropylcellulose) (HPC)",113 % of control
same,T/C,"dose: 25.0 mg/kg/injection, schedule: Q01DX009 (ip), vehicle: Klucel (hydroxypropylcellulose) (HPC)",103 % of control and 113 % of control
O=C1/C(=C/c2ccco2)CCC2CC3(CCC12)OCCO3 (configuration not stated),T/C,"dose: 100.0 mg/kg/injection, schedule: Q04DX003 (ip), vehicle: other",108 % of control
same,T/C,"dose: 200.0 mg/kg/injection, schedule: Q04DX003 (ip), vehicle: other",91 % of control
same,T/C,"dose: 400.0 mg/kg/injection, schedule: Q04DX003 (ip), vehicle: other",108 % of control
Nc1ccc(N=Nc2ccccc2)c(N)c1,T/C,[12],88 % of control
same,T/C,[9],99 % of control
same,T/C,"dose: 100.0 mg/kg/injection, schedule: Q01DX009 (ip), vehicle: Klucel (hydroxypropylcellulose) (HPC)",91 % of control
same,T/C,[10],113 % of control
same,T/C,[1],120 % of control
same,T/C,[2],86 % of control
same,T/C,"dose: 200.0 mg/kg/injection, schedule: Q01DX009 (ip), vehicle: Klucel (hydroxypropylcellulose) (HPC)",100 % of control
same,T/C,[11],115 % of control
same,T/C,[3],100 % of control
same,T/C,[4],115 % of control
same,T/C,[5],104 % of control
CCn1c(O)c(N=NC(=S)NC)c2ccccc21,T/C,"dose: 37.5 mg/kg/injection, schedule: Q01DX009 (ip), vehicle: saline with Tween-80",86 % of control
O.[Co].[Co].[NH2-].[NH2-].[NH2-].[NH2-].[NH2-].[NH2-].[NH2-].[NH2-].[NH2-],T/C,"dose: 0.5 mg/kg/injection, schedule: Q01DX009 (ip), vehicle: water",100 % of control
same,T/C,"dose: 1.5 mg/kg/injection, schedule: Q04DX003 (ip), vehicle: water",121 % of control
same,T/C,"dose: 2.0 mg/kg/injection, schedule: Q01DX009 (ip), vehicle: water",95 % of control
same,T/C,"dose: 3.0 mg/kg/injection, schedule: Q04DX003 (ip), vehicle: water",95 % of control
same,T/C,"dose: 4.0 mg/kg/injection, schedule: Q01DX009 (ip), vehicle: water",100 % of control
CC(C)CC(NC(=O)C(Cc1ccc(OCc2ccccc2)cc1)NC=O)C(=O)O (configuration not stated) (For-Tyr(Bn)-Leu-OH; configuration not given here),T/C,[9],110 % of control
same,T/C,[10],95 % of control and 100 % of control (2×)
same,T/C,"dose: 100.0 mg/kg/injection, schedule: Q01DX009 (ip), vehicle: sodium bicarbonate",90 % of control
same,T/C,[7],105 % of control
same,T/C,[11],86 % of control and 95 % of control and 110 % of control
same,T/C,"dose: 200.0 mg/kg/injection, schedule: Q01DX009 (ip), vehicle: sodium bicarbonate",105 % of control
same,T/C,[8],105 % of control
same,T/C,"dose: 400.0 mg/kg/injection, schedule: Q01DX009 (ip), vehicle: saline with Tween-80",90 % of control
same,T/C,"dose: 400.0 mg/kg/injection, schedule: Q04DX003 (ip), vehicle: saline with Tween-80",110 % of control
c1ccc([P+](CCN2Cc3ccccc3C2)(c2ccccc2)c2ccccc2)cc1,T/C,"dose: 3.13 mg/kg/injection, schedule: Q01DX009 (ip), vehicle: saline",99 % of control
same,T/C,"dose: 6.25 mg/kg/injection, schedule: Q01DX009 (ip), vehicle: saline",114 % of control
same,T/C,"dose: 12.5 mg/kg/injection, schedule: Q01DX009 (ip), vehicle: saline",105 % of control
NC(N)=NC(N)=Nc1ccc(-c2ccc(N=C(N)N=C(N)N)cc2)cc1,T/C,[13],151 % of control
same,T/C,[12],89 % of control
CC1(c2cccs2)C(=O)NC(=O)N1C(=O)CCl (configuration not stated),T/C,[13],101 % of control
same,T/C,[12],88 % of control
same,T/C,[9],105 % of control
same,T/C,[6],104 % of control
same,T/C,"dose: 75.0 mg/kg/injection, schedule: Q01DX009 (ip), vehicle: saline with Tween-80",90 % of control
same,T/C,[10],106 % of control
same,T/C,[7],94 % of control
same,T/C,"dose: 150.0 mg/kg/injection, schedule: Q01DX009 (ip), vehicle: saline with Tween-80",105 % of control
same,T/C,[8],97 % of control
O=S(=O)(/N=C1C=C/C(=N\S(=O)(=O)c2ccccc2)C(Sc2ccccc2)=C\1)c1ccccc1,T/C,"dose: 50.0 mg/kg/injection, schedule: Q01DX001 (ip), vehicle: saline with Tween-80",104 % of control
same,T/C,"dose: 100.0 mg/kg/injection, schedule: Q01DX001 (ip), vehicle: saline with Tween-80",90 % of control
same,T/C,"dose: 200.0 mg/kg/injection, schedule: Q01DX001 (ip), vehicle: saline with Tween-80",122 % of control
